# Assay results reported in patent US20260034094A1, “COMPOSITIONS AND METHODS FOR INDUCING FERROPTOSIS” (Kojin Therapeutics, Inc., priority 2022, published 2026).
# pEC50, pIC50: −log10 of the molar value. Where “and” joins values, the source holds several entries; their conditions need not be identical. Equal values may be shown once. Read-outs that look alike come from different tables or passages of the source.
# Experiments:
# [1] = target: human recombinant GCL (Homo sapiens (Human), UniProt P48506); experiment: GCL enzyme profiling assay (ADP-Glo luminescence); type: biochemical; conditions: human recombinant GCL 5 nM, 1 h preincubation with ATP; for pIC50: read-out: GCL IC50; for IC50: read-out: GCL IC50 (mM), individual values in parentheses
# Procedure, shortened: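 IC50 fitted by four-parameter logistic to luminescent ADP formation (ADP-Glo). Reaction at room temperature in HEPES pH 7.5 with 30 mM MgCl2, 0.2% F-127, 1% DMSO; 5 nM GCL and 0.6 mM ATP preincubated 1 h before adding 1 mM glutamate plus 1.2 mM α-aminobutyrate for 2 h.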
# [2] = tested on: RKN cells; experiment: RKN cell profiling assay (cell viability, CellTiter-Glo); type: cell-based; conditions: 96 h, 96 h exposure, read-out: Cell Killing EC50
# Procedure, shortened: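 Viability read by CellTiter-Glo luminescence after 96 h compound exposure (0.5% DMSO final) of cells plated at 1,000/well in 10% FBS F-12 and allowed 24 h attachment. Four-parameter fits gave EC50; rescue arms used ferrostatin-1, 1.5 μM, present from seeding.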
# human recombinant GCL, sequence (P48506 whole entry): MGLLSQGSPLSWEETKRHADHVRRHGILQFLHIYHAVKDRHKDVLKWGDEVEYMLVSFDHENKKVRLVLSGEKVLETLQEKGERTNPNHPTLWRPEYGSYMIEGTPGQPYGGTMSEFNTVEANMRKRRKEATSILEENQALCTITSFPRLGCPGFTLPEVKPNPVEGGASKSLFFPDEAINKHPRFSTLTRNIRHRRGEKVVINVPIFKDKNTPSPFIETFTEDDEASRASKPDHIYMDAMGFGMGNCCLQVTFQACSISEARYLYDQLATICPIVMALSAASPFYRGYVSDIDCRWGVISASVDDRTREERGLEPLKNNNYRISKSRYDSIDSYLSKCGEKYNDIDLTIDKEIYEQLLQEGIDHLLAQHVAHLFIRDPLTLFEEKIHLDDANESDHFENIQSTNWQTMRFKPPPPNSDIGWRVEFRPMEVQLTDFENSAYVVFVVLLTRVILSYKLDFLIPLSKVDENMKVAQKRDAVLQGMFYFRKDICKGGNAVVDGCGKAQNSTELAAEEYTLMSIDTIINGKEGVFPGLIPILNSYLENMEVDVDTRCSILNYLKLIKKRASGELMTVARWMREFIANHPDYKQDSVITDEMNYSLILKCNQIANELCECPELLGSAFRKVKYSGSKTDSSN
SMILES,pIC50 [1],pEC50 [2],IC50 [1]
CCCCOC(=O)[C@@H](N)CCS(=N)(=O)CCCC(F)(F)F (stereo partly shown) [Compound 79],< 2.70,> 3.00,–
N=S(=O)(CCCC(F)(F)F)CC[C@H](N)C(=O)OC1CCCCC1 (stereo partly shown) [Compound 80],2.70 to 4.70,> 3.00,–
N=S(=O)(CCCC(F)(F)F)CC[C@H](N)C(=O)OCC1CCCCC1 (stereo partly shown) [Compound 81],2.70 to 4.70,> 3.00,–
CCCC(C)OC(=O)[C@@H](N)CCS(=N)(=O)CCCC(F)(F)F (stereo partly shown) [Compound 82],2.70 to 4.70,> 3.00,–
COCCOC(=O)[C@@H](N)CCS(=N)(=O)CCCC(F)(F)F (stereo partly shown) [Compound 83],2.70 to 4.70,> 3.00,–
N=S(=O)(CCCC(F)(F)F)CC[C@H](N)C(=O)OC1CCOCC1 (stereo partly shown) [Compound 84],2.70 to 4.70,> 3.00,–
N=S(=O)(CCCC(F)(F)F)CC[C@H](N)C(=O)OCc1ccccc1 (stereo partly shown) [Compound 86],2.70 to 4.70,> 3.00,–
CCCCOC(=O)[C@@H](N)CCS(=N)(=O)CCC(C)(C)c1ccccc1 (stereo partly shown) [Compound 87],2.70 to 4.70,> 3.00,–
CC(C)OC(=O)[C@@H](N)CCS(=N)(=O)CCCC(F)(F)F (stereo partly shown) [Compound 88],2.70 to 4.70,> 3.00,–
CCCC(C)(C)OC(=O)[C@@H](N)CCS(=N)(=O)CCCC(F)(F)F (stereo partly shown) [Compound 89],< 2.70,> 3.00,–
CCCCOC(=O)[C@@H](N)CC[S@@](=N)(=O)CCCC(F)(F)F [Compound 90],2.70 to 4.70,> 3.00,–
CCCCOC(=O)[C@@H](N)CCS(=N)(=O)CCc1ccccc1Cl (stereo partly shown) [Compound 91],2.70 to 4.70,> 3.00,–
CCCCOC(=O)[C@@H](N)CCS(=N)(=O)CCc1cccc(F)c1C(F)(F)F (stereo partly shown) [Compound 92],2.70 to 4.70,> 3.00,–
CC(C)(C)OC(=O)[C@@H](N)CC[S@@](=N)(=O)CCCC(F)(F)F [Compound 93],2.70 to 4.70,> 3.00,–
CCCCOC(=O)[C@@H](N)CCS(=N)(=O)CCc1ccccc1C(F)(F)F (stereo partly shown) [Compound 94],2.70 to 4.70,> 3.00,–
CCCCOC(=O)[C@@H](N)CCS(=N)(=O)CCC(C)C (stereo partly shown) [Compound 95],2.70 to 4.70,> 3.00,–
CC(C)(C)CCS(=N)(=O)CC[C@H](N)C(=O)OC1CCCCC1 (stereo partly shown) [Compound 97],< 2.70,> 3.00,–
CCCC(C)(C)OC(=O)[C@@H](N)CCS(=N)(=O)CCC(C)(C)C (stereo partly shown) [Compound 99],< 2.70,> 3.00,–
"CCCCNC(=O)[C@@H](N)CCS(=N)(=O)CCC(C)(C)C (stereo partly drawn) [Compound 100, (2S)-2-amino-N-butyl-4-(3,3-dimethylbutylsulfonimidoyl)butanamide]",< 2.70,> 3.00,–
"CC(C)(C)CCS(=N)(=O)CC[C@H](N)C(=O)Nc1cccnc1 (stereo partly drawn) [Compound 101, (2S)-2-amino-4-(3,3-dimethylbutylsulfonimidoyl)-N-(pyridin-3-yl)butanamide]",< 2.70,> 3.00,–
"CCCCS(=N)(=O)CC[C@H](N)C(=O)NS(C)(=O)=O (stereo partly drawn) [Compound 104, (2S)-2-amino-4-(butylsulfonimidoyl)-N-(methylsulfonyl)butanamide]",2.70 to 4.70,≤ 3.00,–
"CCCCS(=N)(=O)CC[C@H](N)C(N)=O (stereo partly drawn) [Compound 105, (2S)-2-amino-4-(butylsulfonimidoyl)butanamide]",< 2.70,≤ 3.00,–

SMILES,pIC50 [1],pEC50 [2],IC50 [1]
CCCCS(=N)(=O)CC[C@H](N)C(=O)NCC#N (stereo partly shown) [Compound 106],< 2.70,≤ 3.00,–
CCCCS(=N)(=O)CC[C@H](N)C(=O)NS(=O)(=O)C(F)(F)F (stereo partly shown) [Compound 108],< 2.70,≤ 3.00,–
CCCCS(=N)(=O)CC[C@H](N)C(=O)NS(=O)(=O)C1CC1 (stereo partly shown) [Compound 109],2.70 to 4.70,≤ 3.00,–
CC(C)(C)CCS(=N)(=O)CC[C@H](N)C(=O)NS(C)(=O)=O (stereo partly shown) [Compound 111],2.70 to 4.70,≤ 3.00,–
CCCCS(=N)(=O)CC[C@H](N)C(=O)NCC(N)=O (stereo partly shown) [Compound 112],2.70 to 4.70,≤ 3.00,–
CC(C)(C)CCS(=N)(=O)CC[C@H](N)C(=O)NC1CC1 (stereo partly shown) [Compound 113],2.70 to 4.70,> 3.00,–
CC(C)(C)CCS(=N)(=O)CC[C@H](N)C(=O)NCC(F)(F)F (stereo partly shown) [Compound 114],< 2.70,> 3.00,–
CN(C)C(=O)[C@@H](N)CCS(=N)(=O)CCC(C)(C)C (stereo partly shown) [Compound 115],< 2.70,≤ 3.00,–
CC(C)(C)CCS(=N)(=O)CC[C@H](N)C(=O)N1CCCC1 (stereo partly shown) [Compound 116],< 2.70,≤ 3.00,–
CC(C)(C)CCS(=N)(=O)CC[C@H](N)C(=O)NC(C)(C)C (stereo partly shown) [Compound 117],< 2.70,≤ 3.00,–
CC(C)(C)CCS(=N)(=O)CC[C@H](N)C(=O)Nc1ccccc1 (stereo partly shown) [Compound 118],< 2.70,> 3.00,–
CC(C)(C)CCS(=N)(=O)CC[C@H](N)C(=O)NC1CCOCC1 (stereo partly shown) [Compound 120],< 2.70,> 3.00,–
CC(C)(C)CCS(=N)(=O)CC[C@H](N)C(=O)NCc1ccccc1 (stereo partly shown) [Compound 122],< 2.70,> 3.00,–
CC(C)(C)CCS(=N)(=O)CC[C@H](N)C(=O)Nc1cc[nH]n1 (stereo partly shown) [Compound 123],< 2.70 and 2.70 to 4.70,≤ 3.00,> 10 mM and 1.16 mM
CC(C)(C)CCS(=N)(=O)CC[C@H](N)C(=O)NCc1cncs1 (stereo partly shown) [Compound 124],< 2.70,> 3.00,–
CC(C)(C)CCS(=N)(=O)CC[C@H](N)C(=O)NCCC(C)(C)O (stereo partly shown) [Compound 125],< 2.70,> 3.00,–
CC(C)(C)CCS(=N)(=O)CC[C@H](N)C(=O)NC(CO)CO (stereo partly shown) [Compound 126],< 2.70,≤ 3.00,–
CC(C)(C)CCS(=N)(=O)CC[C@H](N)C(=O)Nc1ccncc1 (stereo partly shown) [Compound 127],< 2.70,> 3.00,–
CC(C)(C)CCS(=N)(=O)CC[C@H](N)C(=O)Nc1ccccn1 (stereo partly shown) [Compound 128],2.70 to 4.70,> 3.00,–
CC(C)(C)CCS(=N)(=O)CC[C@H](N)C(=O)NC1COC1 (stereo partly shown) [Compound 129],< 2.70,> 3.00,–
N=S(=O)(CCCC(F)(F)F)CC[C@H](N)C(=O)NC1CC1 (stereo partly shown) [Compound 130],< 2.70 and 2.70 to 4.70,> 3.00,> 10 mM and 1.73 mM
